These results are taken from patent publication US20250144094A1 (Erasca, Inc., priority 2021, published 2025).

The target of this test is Recombinant human ULK1 (1-649) (Homo sapiens (Human), UniProt O75385). In words: ULK1 ADP Glo kinase activity assay (MBP substrate). As to conditions: 25° C., 40 minutes, read-out: ULK1 biochemical IC50. In short, it runs like this: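 GST-tagged ULK1 (1-649) from Sf9 cells phosphorylated MBP, with ATP, for 40 min at 25 °C across a 12-point series from 10 uM. ADP formed was quantified by ADP-Glo luminescence against DMSO controls. IC50 came from a four-parameter variable-slope fit of log concentration.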
For orientation: ADP-Glo turns the ADP formed in a reaction into a luminescent signal.

Recombinant human ULK1 (1-649), sequence (O75385 1-649): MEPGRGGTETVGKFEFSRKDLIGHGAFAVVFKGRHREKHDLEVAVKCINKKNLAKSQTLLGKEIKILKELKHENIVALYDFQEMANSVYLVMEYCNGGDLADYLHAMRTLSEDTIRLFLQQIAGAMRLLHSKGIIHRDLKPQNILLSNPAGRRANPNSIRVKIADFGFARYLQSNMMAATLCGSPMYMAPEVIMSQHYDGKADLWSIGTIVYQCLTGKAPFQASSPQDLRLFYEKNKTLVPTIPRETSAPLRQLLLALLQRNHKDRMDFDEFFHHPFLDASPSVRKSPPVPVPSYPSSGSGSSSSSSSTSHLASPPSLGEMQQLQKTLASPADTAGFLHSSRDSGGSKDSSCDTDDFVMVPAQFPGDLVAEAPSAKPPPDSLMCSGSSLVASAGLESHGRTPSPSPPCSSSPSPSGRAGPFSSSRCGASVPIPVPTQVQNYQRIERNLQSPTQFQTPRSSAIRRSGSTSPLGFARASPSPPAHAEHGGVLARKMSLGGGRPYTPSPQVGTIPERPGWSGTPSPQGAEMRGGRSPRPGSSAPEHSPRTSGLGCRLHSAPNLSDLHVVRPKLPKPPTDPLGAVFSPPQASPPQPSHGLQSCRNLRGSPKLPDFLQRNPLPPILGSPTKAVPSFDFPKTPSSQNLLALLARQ

The IC50 is the midpoint of a concentration-inhibition curve. Regarding `O=C1NCCS(=O)(=O)c2cc(-c3nc(Nc4cc5c(cc4Cl)CNCC5)ncc3C(F)(F)F)sc21` [Example 82, 7-[2-[(7-chloro-1,2,3,4-tetrahydroisoquinolin-6-yl)amino]-5-(trifluoromethyl)pyrimidin-4-yl]-1,1-dioxo-3,4-dihydro-2H-thieno[2,3-f][1,4]thiazepin-5-one], the IC50 is no more than 10 nM.
For `CS(=O)(=O)c1cc(-c2nc(Nc3cc4c(cc3Cl)CNCC4)ncc2C(F)(F)F)sc1N1CCOCC1` [Example 83, 7-Chloro-N-[4-(4-methylsulfonyl-5-morpholino-2-thienyl)-5-(trifluoromethyl)pyrimidin-2-yl]-1,2,3,4-tetrahydroisoquinolin-6-amine], the IC50 was no more than 10 nM.
The figure for `O=S1(=O)NCCCc2sc(-c3nc(Nc4cc5c(cc4Cl)CNCC5)ncc3C(F)(F)F)cc21` [Example 84, 7-(2-((7-chloro-1,2,3,4-tetrahydroisoquinolin-6-yl)amino)-5-(trifluoromethyl)pyrimidin-4-yl)-2,3,4,5-tetrahydrothieno[2,3-f][1,2]thiazepine 1,1-dioxide] is no more than 10 nM; for `O=S1(=O)NCCOc2sc(-c3nc(Nc4cc5c(cc4Cl)CNCC5)ncc3C(F)(F)F)cc21` [Example 85, 7-chloro-N-[4-(1,1-dioxo-3,4-dihydro-2H-thieno[2,3-b][1,4,5]oxathiazepin-7-yl)-5-(trifluoromethyl)pyrimidin-2-yl]-1,2,3,4-tetrahydroisoquinolin-6-amine] it is no more than 10 nM; for `CN1CCc2cc(Nc3ncc(C(F)(F)F)c(-c4cc5c(s4)C(=O)NCCS5(=O)=O)n3)c(Cl)cc2C1` [Example 86, 7-(2-((7-chloro-2-methyl-1,2,3,4-tetrahydroisoquinolin-6-yl)amino)-5 (trifluoromethyl)pyrimidin-4-yl)-3,4-dihydrothieno[2,3-f][1,4]thiazepin-5(2H)-one 1,1-dioxide] it is no more than 10 nM.
The figure for `CN1CCc2cc(Nc3ncc(C(F)(F)F)c(-c4cc(S(C)(=O)=O)c(C5CCOCC5)s4)n3)c(Cl)cc2C1` [Example 87, 7-chloro-2-methyl-N-(4-(4-(methylsulfonyl)-5-(tetrahydro-2H-pyran-4-yl)thiophen-2-yl)-5-(trifluoromethyl)pyrimidin-2-yl)-1,2,3,4-tetrahydroisoquinolin-6-amine] is no more than 10 nM.
The result for `CN1Cc2cc(Nc3ncc(C(F)(F)F)c(-c4cc(S(C)(=O)=O)cs4)n3)c(C3CC3)cc2C1` [Example 88, 6-cyclopropyl-N-[4-(4-methanesulfonylthiophen-2-yl)-5-(trifluoromethyl)pyrimidin-2-yl]-2-methyl-2,3-dihydro-1H-isoindol-5-amine] reads no more than 10 nM.
`CS(=O)(=O)c1csc(-c2nc(Nc3cc4c(cc3Cl)CNCC4)ncc2C2CC2)c1` [Example 89, 7-chloro-N-(5-cyclopropyl-4-(4-(methylsulfonyl)thiophen-2-yl)pyrimidin-2-yl)-1,2,3,4-tetrahydroisoquinolin-6-amine]: the IC50 lay within 10 to 50 nM.
The result for `CS(=O)(=O)c1cc(-c2nc(Nc3cc4c(cc3Cl)CNCC4)ncc2C(F)(F)F)sc1N1CCS(=O)(=O)CC1` [Example 90, 4-(5-(2-((7-chloro-1,2,3,4-tetrahydroisoquinolin-6-yl)amino)-5-(trifluoromethyl)pyrimidin-4-yl)-3-(methylsulfonyl)thiophen-2-yl)thiomorpholine 1,1-dioxide] reads no more than 10 nM; that for `CS(=O)(=O)c1csc(-c2nc(Nc3cc4c(cc3F)CNCC4)ncc2C(F)(F)F)c1` [Example 91, 7-fluoro-N-(4-(4-(methylsulfonyl)thiophen-2-yl)-5-(trifluoromethyl)pyrimidin-2-yl)-1,2,3,4-tetrahydroisoquinolin-6-amine], no more than 10 nM; that for `Cc1cc2c(cc1Nc1ncc(C(F)(F)F)c(-c3cc(S(C)(=O)=O)cs3)n1)CN(C)C2` [Example 92, 2,6-dimethyl-N-(4-(4-(methylsulfonyl)thiophen-2-yl)-5-(trifluoromethyl)pyrimidin-2-yl)isoindolin-5-amine], no more than 10 nM.
Regarding `CS(=O)(=O)c1csc(-c2nc(Nc3cc4c(cc3Cl)CNCC4)ncc2Cl)c1` [Example 93, 7-chloro-N-(5-chloro-4-(4-(methylsulfonyl)thiophen-2-yl)pyrimidin-2-yl)-1,2,3,4-tetrahydroisoquinolin-6-amine], the half-maximal inhibitory concentration (IC50) was no more than 10 nM.
As for `Cc1cnc(Nc2cc3c(cc2Cl)CNCC3)nc1-c1cc(S(C)(=O)=O)cs1` [Example 94, 7-chloro-N-(5-methyl-4-(4-(methylsulfonyl)thiophen-2-yl)pyrimidin-2-yl)-1,2,3,4-tetrahydroisoquinolin-6-amine], the IC50 is no more than 10 nM.
The result for `CN1CCc2cc(Nc3ncc(C(F)(F)F)c(-c4cc(S(C)(=O)=O)cs4)n3)c(Cl)cc2C1` [Example 95, 7-chloro-2-methyl-N-(4-(4-(methylsulfonyl)thiophen-2-yl)-5-(trifluoromethyl)pyrimidin-2-yl)-1,2,3,4-tetrahydroisoquinolin-6-amine] reads no more than 10 nM; that for `COCc1sc(-c2nc(Nc3cc4c(cc3Cl)CNCC4)ncc2C(F)(F)F)cc1S(C)(=O)=O` [Example 96, 7-chloro-N-(4-(5-(methoxymethyl)-4-(methylsulfonyl)thiophen-2-yl)-5-(trifluoromethyl)pyrimidin-2-yl)-1,2,3,4-tetrahydroisoquinolin-6-amine], 10 to 50 nM; that for `CS(=O)(=O)c1cc(-c2nc(Nc3cc4c(cc3Cl)CNCC4)ncc2C(F)(F)F)sc1C1CCOCC1` [Example 97, 7-chloro-N-(4-(4-(methylsulfonyl)-5-(tetrahydro-2H-pyran-4-yl)thiophen-2-yl)-5-(trifluoromethyl)pyrimidin-2-yl)-1,2,3,4-tetrahydroisoquinolin-6-amine], no more than 10 nM.
The figure for `CN1CCc2cc(Nc3ncc(C(F)(F)F)c(-c4cc(S(C)(=O)=O)cs4)n3)c(F)cc2C1` [Example 98, 7-fluoro-2-methyl-N-(4-(4-(methylsulfonyl)thiophen-2-yl)-5-(trifluoromethyl)pyrimidin-2-yl)-1,2,3,4-tetrahydroisoquinolin-6-amine] is no more than 10 nM; for `CS(=O)(=O)c1csc(-c2nc(Nc3cc4c(cc3Cl)CCNC4)ncc2C(F)(F)F)c1` [Example 99, 6-chloro-N-(4-(4-(methylsulfonyl)thiophen-2-yl)-5-(trifluoromethyl)pyrimidin-2-yl)-1,2,3,4-tetrahydroisoquinolin-7-amine] it is no more than 10 nM.
The result for `CN1CCc2cc(Cl)c(Nc3ncc(C(F)(F)F)c(-c4cc(S(C)(=O)=O)cs4)n3)cc2C1` [Example 100, 6-chloro-2-methyl-N-(4-(4-(methylsulfonyl)thiophen-2-yl)-5-(trifluoromethyl)pyrimidin-2-yl)-1,2,3,4-tetrahydroisoquinolin-7-amine] reads no more than 10 nM; that for `CS(=O)(=O)c1csc(-c2nc(Nc3ccc4c(c3)CNCC4)ncc2C(F)(F)F)c1` [Example 101, N-[4-(4-methanesulfonylthiophen-2-yl)-5-(trifluoromethyl)pyrimidin-2-yl]-1,2,3,4-tetrahydroisoquinolin-7-amine], no more than 10 nM; that for `CN1CCc2ccc(Nc3ncc(C(F)(F)F)c(-c4cc(S(C)(=O)=O)cs4)n3)cc2C1` [Example 102, N-[4-(4-methanesulfonylthiophen-2-yl)-5-(trifluoromethyl)pyrimidin-2-yl]-2-methyl-1,2,3,4-tetrahydroisoquinolin-7-amine], no more than 10 nM.
Consider `CN1CCN(c2ccc(Nc3ncc(C(F)(F)F)c(-c4cc(S(C)(=O)=O)cs4)n3)cc2)CC1` [Example 103, N-(4-(4-methylpiperazin-1-yl)phenyl)-4-(4-(methylsulfonyl)thiophen-2-yl)-5-(trifluoromethyl)pyrimidin-2-amine], for which the IC50 is no more than 10 nM.
The result for `CS(=O)(=O)c1cc(-c2nc(Nc3cc4c(cc3Cl)CNCC4)ncc2C(F)(F)F)sc1C1CCS(=O)(=O)CC1` [Example 104, 4-(5-(2-((7-chloro-1,2,3,4-tetrahydroisoquinolin-6-yl)amino)-5-(trifluoromethyl)pyrimidin-4-yl)-3-(methylsulfonyl)thiophen-2-yl)tetrahydro-2H-thiopyran 1,1-dioxide] reads no more than 10 nM.
Consider `CS(=O)(=O)c1csc(-c2nc(Nc3ccc4c(c3)CCNC4)ncc2C(F)(F)F)c1` [Example 105, N-(4-(4-(methylsulfonyl)thiophen-2-yl)-5-(trifluoromethyl)pyrimidin-2-yl)-1,2,3,4-tetrahydroisoquinolin-6-amine], for which the IC50 was no more than 10 nM.
The result for `CS(=O)(=O)c1csc(-c2nc(Nc3cc4c(cc3Cl)CN(C3CC3)CC4)ncc2C(F)(F)F)c1` [Example 107, 7-chloro-2-cyclopropyl-N-[4-(4-methylsulfonyl-2-thienyl)-5-(trifluoromethyl)pyrimidin-2-yl]-3,4-dihydro-1H-isoquinolin-6-amine] reads 10 to 50 nM; that for `CS(=O)(=O)c1csc(-c2nc(Nc3cc4c(cc3Cl)CN(CC(F)(F)F)CC4)ncc2C(F)(F)F)c1` [Example 108, 7-chloro-N-[4-(4-methylsulfonyl-2-thienyl)-5-(trifluoromethyl)pyrimidin-2-yl]-2-(2,2,2-trifluoroethyl)-3,4-dihydro-1H-isoquinolin-6-amine], 100 to 500 nM.
Take `CN1CCc2cc(Nc3ncc(C(F)(F)F)c(-c4cc5c(s4)CN(C)CCS5(=O)=O)n3)c(Cl)cc2C1` [Example 109, 7-chloro-2-methyl-N-[4-(4-methyl-1,1-dioxo-3,5-dihydro-2H-thieno[2,3-f][1,4]thiazepin-7-yl)-5-(trifluoromethyl)pyrimidin-2-yl]-3,4-dihydro-1H-isoquinolin-6-amine]: the IC50 is no more than 10 nM.
The result for `CS(=O)(=O)c1csc(-c2nc(Nc3cc4c(cc3F)CCNC4)ncc2C(F)(F)F)c1` [Example 110, 6-fluoro-N-[4-(4-methylsulfonyl-2-thienyl)-5-(trifluoromethyl)pyrimidin-2-yl]-1,2,3,4-tetrahydroisoquinolin-7-amine] reads no more than 10 nM.
